Assay results taken from ChEMBL document CHEMBL4477217, “Discovery of 3-(3-(4-(1-Aminocyclobutyl)phenyl)-5-phenyl-3H-imidazo[4,5-b]pyridin-2-yl)pyridin-2-amine (ARQ 092): An Orally Bioavailable, Selective, and Potent Allosteric AKT Inhibitor” (J Med Chem, 2016).
Blank lines part the entries; values can stand above or below the molecule they belong to.

Legend:
[1] = target: RAC-beta serine/threonine-protein kinase (Homo sapiens, UniProt P31751); set-up: species or system Sf9
[2] = target: RAC-gamma serine/threonine-protein kinase (Homo sapiens, UniProt Q9Y243); set-up: species or system Sf9
[3] = Solubility of the compound; format: physicochemical
[4] = Oral bioavailability in mouse at 100 mg/kg; format: ADME, organism-based; conditions: in vivo
[5] = test system: Mus musculus; test: In vivo inhibition of AKT1 phosphorylation at Ser473 in human AN3CA cells xenografted in NCr-M nude mouse at 100 mg/kg, po after 1 hr by Western blot analysis; format: functional; conditions: AN3-CA
[6] = test system: Mus musculus; test: In vivo inhibition of AKT1 phosphorylation at Ser473 in human AN3CA cells xenografted in NCr-M nude mouse at 100 mg/kg, po after 8 hrs by Western blot analysis; format: functional; conditions: AN3-CA
[7] = test system: Mus musculus; test: In vivo inhibition of AKT1 phosphorylation at Ser473 in human AN3CA cells xenografted in NCr-M nude mouse at 200 mg/kg, po after 1 hr by Western blot analysis; format: functional; conditions: AN3-CA
[8] = test system: Mus musculus; test: In vivo inhibition of AKT1 phosphorylation at Ser473 in human AN3CA cells xenografted in NCr-M nude mouse at 200 mg/kg, po after 8 hrs by Western blot analysis; format: functional; conditions: AN3-CA
[9] = test system: Mus musculus; test: In vivo inhibition of AKT1 phosphorylation at Thr308 in human AN3CA cells xenografted in NCr-M nude mouse at 100 mg/kg, po after 1 hr by Western blot analysis; format: functional; conditions: AN3-CA
[10] = test system: Mus musculus; test: In vivo inhibition of AKT1 phosphorylation at Thr308 in human AN3CA cells xenografted in NCr-M nude mouse at 100 mg/kg, po after 8 hrs by Western blot analysis; format: functional; conditions: AN3-CA
[11] = test system: Mus musculus; test: In vivo inhibition of AKT1 phosphorylation at Thr308 in human AN3CA cells xenografted in NCr-M nude mouse at 200 mg/kg, po after 1 hr by Western blot analysis; format: functional; conditions: AN3-CA
[12] = test system: Mus musculus; test: In vivo inhibition of AKT1 phosphorylation at Thr308 in human AN3CA cells xenografted in NCr-M nude mouse at 200 mg/kg, po after 8 hrs by Western blot analysis; format: functional; conditions: AN3-CA
[13] = test system: Mus musculus; test: In vivo inhibition of AKT1 phosphorylation in human AN3CA cells xenografted in NCr-M nude mouse assessed as inhibition of PRAS40 phosphorylation at Thr246 at 100 mg/kg, po after 1 hr by Western blot analysis; format: functional; conditions: AN3-CA
[14] = test system: Mus musculus; test: In vivo inhibition of AKT1 phosphorylation in human AN3CA cells xenografted in NCr-M nude mouse assessed as inhibition of PRAS40 phosphorylation at Thr246 at 100 mg/kg, po after 8 hrs by Western blot analysis; format: functional; conditions: AN3-CA
[15] = test system: Mus musculus; test: In vivo inhibition of AKT1 phosphorylation in human AN3CA cells xenografted in NCr-M nude mouse assessed as inhibition of PRAS40 phosphorylation at Thr246 at 200 mg/kg, po after 1 hr by Western blot analysis; format: functional; conditions: AN3-CA
[16] = test system: Mus musculus; test: In vivo inhibition of AKT1 phosphorylation in human AN3CA cells xenografted in NCr-M nude mouse assessed as inhibition of PRAS40 phosphorylation at Thr246 at 200 mg/kg, po after 8 hrs by Western blot analysis; format: functional; conditions: AN3-CA
[17] = Drug uptake in NCr-M nude mouse plasma xenografted with human AN3CA cells at 100 mg/kg, po after 1 hr; format: ADME, organism-based
[18] = Drug uptake in NCr-M nude mouse plasma xenografted with human AN3CA cells at 100 mg/kg, po after 8 hr; format: ADME, organism-based
[19] = Drug uptake in NCr-M nude mouse plasma xenografted with human AN3CA cells at 200 mg/kg, po after 1 hr; format: ADME, organism-based
[20] = Drug uptake in NCr-M nude mouse plasma xenografted with human AN3CA cells at 200 mg/kg, po after 8 hr; format: ADME, organism-based
[21] = Drug uptake in NCr-M nude mouse tumor xenografted with human AN3CA cells at 100 mg/kg, po after 1 hr; format: ADME, organism-based, Neoplasm; conditions: read-out: Drug uptake
[22] = Drug uptake in NCr-M nude mouse tumor xenografted with human AN3CA cells at 100 mg/kg, po after 8 hr; format: ADME, organism-based, Neoplasm; conditions: read-out: Drug uptake
[23] = Drug uptake in NCr-M nude mouse tumor xenografted with human AN3CA cells at 200 mg/kg, po after 1 hr; format: ADME, organism-based, Neoplasm; conditions: read-out: Drug uptake
[24] = Drug uptake in NCr-M nude mouse tumor xenografted with human AN3CA cells at 200 mg/kg, po after 8 hr; format: ADME, organism-based, Neoplasm; conditions: read-out: Drug uptake
[25] = Tmax in rat at 5 mg/kg administered as single dose; format: ADME, organism-based; conditions: in vivo
[26] = Half life in rat at 5 mg/kg administered as single dose; format: ADME, organism-based; conditions: in vivo
[27] = Cmax in rat at 5 mg/kg administered as single dose; format: ADME, organism-based; set-up: dose 5 mg/kg; conditions: in vivo
[28] = AUC (infinity) in rat at 5 mg/kg administered as single dose; format: ADME, organism-based; set-up: dose 5 mg/kg, time infinity; conditions: in vivo
[29] = Oral bioavailability in rat at 5 mg/kg administered as single dose; format: ADME, organism-based; conditions: in vivo
[30] = Tmax in monkey at 10 mg/kg administered as single dose; format: ADME, organism-based, Macaca mulatta; conditions: rhesus monkey, in vivo
[31] = Half life in monkey at 10 mg/kg administered as single dose; format: ADME, organism-based, Macaca mulatta; conditions: rhesus monkey, in vivo
[32] = Cmax in monkey at 10 mg/kg administered as single dose po; format: ADME, organism-based, Macaca mulatta; set-up: dose 10 mg/kg, route oral; conditions: rhesus monkey, in vivo
[33] = AUC (infinity) in monkey at 10 mg/kg administered as single dose; format: ADME, organism-based, Macaca mulatta; set-up: dose 10 mg/kg, time infinity; conditions: rhesus monkey, in vivo
[34] = Oral bioavailability in monkey at 10 mg/kg administered as single dose; format: ADME, organism-based, Macaca mulatta; conditions: rhesus monkey, in vivo
[35] = in vitro; conditions: human, liver microsomes
[36] = in vitro; conditions: female, CD-1, mouse, liver microsomes
[37] = in vitro; conditions: male, CD-1, mouse, liver microsomes
[38] = in vitro; conditions: female, Beagle, dog, liver microsomes
[39] = in vitro; conditions: male, Beagle, dog, liver microsomes

Chain of RAC-gamma serine/threonine-protein kinase (Q9Y243 whole entry): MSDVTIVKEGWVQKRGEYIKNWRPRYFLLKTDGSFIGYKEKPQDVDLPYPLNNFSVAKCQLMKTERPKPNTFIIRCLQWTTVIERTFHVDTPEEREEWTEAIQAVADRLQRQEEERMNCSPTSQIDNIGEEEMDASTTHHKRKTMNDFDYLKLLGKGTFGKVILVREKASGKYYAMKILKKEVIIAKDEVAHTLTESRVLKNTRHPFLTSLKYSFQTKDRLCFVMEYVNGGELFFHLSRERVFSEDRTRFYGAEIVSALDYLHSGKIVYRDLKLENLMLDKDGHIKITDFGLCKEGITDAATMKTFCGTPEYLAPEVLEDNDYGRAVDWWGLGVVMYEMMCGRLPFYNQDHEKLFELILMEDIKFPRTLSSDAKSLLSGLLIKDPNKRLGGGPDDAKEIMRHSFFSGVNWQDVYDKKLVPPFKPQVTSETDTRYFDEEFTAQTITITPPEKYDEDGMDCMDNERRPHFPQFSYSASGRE
Chain of RAC-beta serine/threonine-protein kinase (P31751 whole entry): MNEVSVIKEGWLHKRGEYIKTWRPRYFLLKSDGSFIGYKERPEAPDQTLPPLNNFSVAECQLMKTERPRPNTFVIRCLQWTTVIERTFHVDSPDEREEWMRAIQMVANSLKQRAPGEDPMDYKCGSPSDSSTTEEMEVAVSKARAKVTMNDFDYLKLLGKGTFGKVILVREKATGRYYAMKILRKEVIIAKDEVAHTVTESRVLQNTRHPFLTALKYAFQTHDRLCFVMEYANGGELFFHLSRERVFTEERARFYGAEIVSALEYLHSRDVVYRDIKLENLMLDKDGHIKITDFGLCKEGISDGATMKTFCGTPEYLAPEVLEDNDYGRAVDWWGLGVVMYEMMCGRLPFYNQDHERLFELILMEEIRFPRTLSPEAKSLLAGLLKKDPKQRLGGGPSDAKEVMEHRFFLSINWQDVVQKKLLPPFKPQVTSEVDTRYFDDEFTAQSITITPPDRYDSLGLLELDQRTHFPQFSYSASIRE

IC50 [1]: 3.5 µM
IC50 [2]: > 10 µM
SMILES: NCc1ccc(-n2c(-c3cccnc3N)nc3cc(-c4cccnc4)cnc32)cc1

IC50 [2]: > 10 µM
SMILES: Cc1cnc2c(c1)nc(-c1cccnc1N)n2-c1ccc(CN)cc1

IC50 [1]: 9.3 µM
IC50 [2]: > 100 µM
SMILES: NCc1ccc(-n2c(-c3cccnc3N)nc3cccnc32)cc1

solubility [3]: 188 µM
half-life at 1 µM [35]: 39 min
SMILES: Cl.NCc1ccc(-n2c(-c3cccnc3N)nc3ccc(-c4ccccc4)nc32)cc1

IC50 [1]: 16 µM
IC50 [2]: 71 µM
SMILES: CC(C)(C)c1ccc(-n2c(-c3cccnc3N)nc3cccnc32)cc1

IC50 [1]: 20 µM
IC50 [2]: > 100 µM
SMILES: Cc1ccc(-n2c(-c3cccnc3N)nc3cccnc32)cc1

More lines, now with the values behind:

SMILES: Cl.Nc1ncccc1-c1nc2ccc(-c3ccccc3)nc2n1-c1ccc(C2(N)CCC2)cc1
solubility [3]: 170 µM
bioavailability [4]: 23%
inhibition in vivo at 100 mg/kg [5]: 99.2%
inhibition in vivo at 100 mg/kg [6]: 98.6%
inhibition in vivo at 200 mg/kg [7]: 99.2%
inhibition in vivo at 200 mg/kg [8]: 99.7%
inhibition in vivo at 100 mg/kg [9]: 95%
inhibition in vivo at 100 mg/kg [10]: 96.3%
inhibition in vivo at 200 mg/kg [11]: 93.3%
inhibition in vivo at 200 mg/kg [12]: 90.8%
inhibition in vivo at 100 mg/kg [13]: 57.7%
inhibition in vivo at 100 mg/kg [14]: 35.9%
inhibition in vivo at 200 mg/kg [15]: 50.5%
inhibition in vivo at 200 mg/kg [16]: 42.5%
concentration at 1 h [17]: 2.1 µM
concentration at 8 h [18]: 0.26 µM
concentration at 1 h [19]: 2.7 µM
concentration at 8 h [20]: 1 µM
concentration at 1 h [21]: 21 µM
concentration at 8 h [22]: 9.6 µM
concentration at 1 h [23]: 35.8 µM
concentration at 8 h [24]: 27.4 µM
Tmax [25]: 480 min
half-life [26]: 1020 min
Cmax [27]: 198 ng/mL
AUC(0-inf) [28]: 5500 ng·h/mL
bioavailability [29]: 62%
Tmax [30]: 258 min
half-life [31]: 420 min
Cmax [32]: 258 ng/mL
AUC(0-inf) [33]: 2960 ng·h/mL
bioavailability [34]: 49%
half-life at 1 µM [35]: 55 min
half-life at 1 µM [36]: 18 min
half-life at 1 µM [37]: 17 min
half-life at 1 µM [38]: 28 min
half-life at 1 µM [39]: 31 min

SMILES: CC(=O)Nc1cccc(-c2ccc3nc(-c4cccnc4N)n(-c4ccc(C5(N)CCC5)cc4)c3n2)c1.Cl
solubility [3]: 160 µM
half-life at 1 µM [35]: > 60 min
half-life at 1 µM [36]: > 60 min
half-life at 1 µM [37]: > 60 min
half-life at 1 µM [38]: 50 min
half-life at 1 µM [39]: > 60 min

SMILES: CC(=O)Nc1cccc(-c2ccc3nc(-c4cccnc4N)n(-c4ccc(CN)cc4)c3n2)c1.Cl
solubility [3]: ≥ 200 µM
half-life at 1 µM [36]: 45 min
half-life at 1 µM [37]: > 60 min
half-life at 1 µM [38]: > 60 min
half-life at 1 µM [39]: > 60 min

SMILES: Cl.Nc1cccc(-c2ccc3nc(-c4cccnc4N)n(-c4ccc(C5(N)CCC5)cc4)c3n2)c1
solubility [3]: 138 µM
half-life at 1 µM [35]: > 60 min
half-life at 1 µM [36]: > 60 min
half-life at 1 µM [37]: > 60 min
half-life at 1 µM [38]: > 60 min
half-life at 1 µM [39]: > 60 min

SMILES: Cl.Nc1ncccc1-c1nc2ccc(-c3cccnc3)nc2n1-c1ccc(C2(N)CCC2)cc1
solubility [3]: 178 µM
half-life at 1 µM [35]: > 30 min
half-life at 1 µM [36]: 37 min
half-life at 1 µM [37]: 31 min
half-life at 1 µM [38]: 21 min
half-life at 1 µM [39]: > 30 min
